According to patent publication US7871999B2, “Substituted thiazoles and their use for producing drugs” (Gruenenthal GmbH, priority 2005, dated 2011):
pIC50: −log10 of the molar value. Where a name gives a salt, the structure may show the parent alone.

What follows are compounds tested against T1, mGluR5 receptor (Sus scrofa, UniProt I3LUI7) (assay: Inhibition of [^3H]-MPEP binding in the mGluR5 receptor binding assay (pig brain homogenate)). Conditions: 5 nM [^3H]-MPEP.
T1 construct: pig brain hemispheres without medulla, cerebellum and pons ... differential centrifugation at 900×g and 40,000×g
Experimental: I. Method for Determining the Inhibition of [^3H]-MPEP Binding in the mGluR5 Receptor Binding Assay […]
The batches are then filtered with the assistance of a Brandel Cell Harvester (Brandel, Robotic 9600 model) on Unifilter plates with glass filter mats (Perkin Elmer, order number 6005177) and then washed 3 times with buffer (as above) using 250 μl per sample. The filter plates are then dried for 60 min at 55° C. Then 30 μl of Ultima Gold™ scintillating material (Packard BioScience, order number 6013159) is added per well and after 3 hours the samples are measured using the β counter (Microbeta, Perkin Elmer). Nonspecific binding is determined by the addition of 10 μM MPEP (Tocris, order number 1212).

T1 sequence (I3LUI7 1-1212): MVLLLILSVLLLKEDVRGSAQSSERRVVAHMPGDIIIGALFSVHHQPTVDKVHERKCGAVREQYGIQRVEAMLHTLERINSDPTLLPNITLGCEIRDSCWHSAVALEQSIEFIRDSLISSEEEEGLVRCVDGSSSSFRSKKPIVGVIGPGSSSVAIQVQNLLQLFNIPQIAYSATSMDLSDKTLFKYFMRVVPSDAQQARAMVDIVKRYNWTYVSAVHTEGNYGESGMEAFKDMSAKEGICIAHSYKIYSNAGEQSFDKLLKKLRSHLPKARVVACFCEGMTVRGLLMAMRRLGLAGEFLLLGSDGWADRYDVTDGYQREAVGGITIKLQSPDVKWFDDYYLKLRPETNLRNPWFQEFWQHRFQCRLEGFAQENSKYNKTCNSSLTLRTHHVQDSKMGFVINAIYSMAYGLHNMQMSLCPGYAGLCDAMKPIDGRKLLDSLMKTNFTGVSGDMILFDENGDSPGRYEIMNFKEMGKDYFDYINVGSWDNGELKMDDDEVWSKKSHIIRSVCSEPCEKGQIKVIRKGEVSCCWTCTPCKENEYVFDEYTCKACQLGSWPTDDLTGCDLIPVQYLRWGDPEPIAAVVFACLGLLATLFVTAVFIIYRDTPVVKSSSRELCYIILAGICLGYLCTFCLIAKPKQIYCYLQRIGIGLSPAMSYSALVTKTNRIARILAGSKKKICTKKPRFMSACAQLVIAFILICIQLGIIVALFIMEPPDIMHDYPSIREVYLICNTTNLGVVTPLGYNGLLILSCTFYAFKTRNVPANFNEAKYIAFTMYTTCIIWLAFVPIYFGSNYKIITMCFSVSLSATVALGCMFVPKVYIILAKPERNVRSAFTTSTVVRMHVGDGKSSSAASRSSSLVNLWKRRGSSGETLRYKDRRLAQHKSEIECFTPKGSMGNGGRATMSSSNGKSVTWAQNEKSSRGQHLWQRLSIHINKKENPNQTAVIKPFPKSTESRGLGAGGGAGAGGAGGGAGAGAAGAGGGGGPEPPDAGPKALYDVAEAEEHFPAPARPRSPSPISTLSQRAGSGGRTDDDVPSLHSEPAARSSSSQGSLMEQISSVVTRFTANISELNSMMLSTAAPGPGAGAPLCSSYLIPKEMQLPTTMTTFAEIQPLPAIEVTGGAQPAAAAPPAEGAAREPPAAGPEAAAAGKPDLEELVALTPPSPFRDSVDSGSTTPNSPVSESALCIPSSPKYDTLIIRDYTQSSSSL

Going from `CN(C(=O)C#Cc1ccccc1)C1CCN(c2nccs2)C1` (stereo not drawn) [Example 2, N-methyl-3-phenyl-N-(1-(thiazol-2-yl)pyrrolidin-3-yl)propiolamide hydrochloride] to `CN(C(=O)C#Cc1ccccc1)C1CCCN(c2nccs2)C1` (stereo not drawn) [Example 16, N-methyl-N-(1-(thiazol-2-yl)piperidin-3-yl)-3-phenylpropiolamide], the pIC50 rises from 5.88 to 6.85 (0.97 log units). The second is the more potent here.

Compared with `O=C(C#Cc1ccccc1)N1CCCN(c2nccs2)CC1` [Example 3, 1-Thiazol-2-yl-4-(3-phenylpropioloyl)-1,4-diazepane], `CN(c1nccs1)C1CCCN(C(=O)C#Cc2ccccc2)C1` (stereo not drawn) [Example 28, 3-(methyl-(thiazol-2-yl)-amino)-1-(3-phenylpropioloyl)piperidine] is 0.29 log units lower in pIC50: 6.23 for the first, 5.94 for the second. The first is the more potent here.

`O=C(C#Cc1ccccc1)NCCNc1nccs1` [Example 5, N-(2-((thiazol-2-yl)amino)ethyl)-3-phenylpropiolamide] and `CN(CCNc1nccs1)C(=O)C#Cc1ccccc1` [Example 10, N-methyl-N-(2-(thiazol-2-yl)amino)ethyl-3-phenylpropiolamide] are within 0.2 log units of each other in pIC50: 5.80 for the first, 5.73 for the second.

Going from `O=C(C#Cc1ccccc1)NC1CN(c2nccs2)C1` [Example 8, 3-Phenyl-N-(1-(thiazol-2-yl)azetidin-3-yl)propiolamide] to `O=C(C#Cc1cccc(Cl)c1)NC1CN(c2nccs2)C1` [Example 39, 3-(3-chlorophenyl)-N-(1-(thiazol-2-yl)azetidin-3-yl)-propiolamide], the pIC50 rises from 4.99 to 6.41 (1.42 log units).

Compared with `O=C(C#Cc1ccccc1)N1CCC(Nc2nccs2)C1` (stereo not drawn) [Example 11, 3-(Thiazol-2-yl-amino)-1-(3-phenylpropioloyl)pyrrolidine], `CN(c1nccs1)C1CCN(C(=O)C#Cc2ccccc2)C1` (stereo not drawn) [Example 22, 3-(Methyl(thiazol-2-yl)amino)-1-(3-phenylpropioloyl)pyrrolidine] is 0.80 log units higher in pIC50: 5.66 for the first, 6.46 for the second. The second is the more potent here.

Compared with `CN(CC(=O)N(C)c1nccs1)C(=O)C#Cc1ccccc1` [Example 14, N-Methyl-N-(2-(methyl(thiazol-2-yl)amino)-2-oxoethyl)-3-phenylpropiolamide], `CN(C(=O)C#Cc1ccccc1)C1CN(c2nccs2)C1` [Example 20, N-methyl-N-(1-(thiazol-2-yl)azetidin-3-yl)-3-phenylpropiolamide] is 1.25 log units higher in pIC50: 5.30 for the first, 6.55 for the second. The second is the more potent here.

Compared with `CN(CCN(C)c1nccs1)C(=O)C#Cc1ccccn1` [Example 17, N-Methyl-N-(2-(methyl(thiazol-2-yl)amino)ethyl)-3-(pyrid-2-yl)-propiolamide], `Cc1cccc(C#CC(=O)NCCN(C)c2nccs2)c1` [Example 21, N-(2-(methyl(thiazol-2-yl)amino)ethyl)-3-(tol-3-yl)-propiolamide] is 2.18 log units higher in pIC50: 5.90 for the first, 8.08 for the second. The second is the more potent here.

Going from `CN(CCNC(=O)C#Cc1cccc(Cl)c1)c1nc2ccccc2s1` [Example 24, N-(2-(benzo[d]thiazol-2-yl(methyl)amino)ethyl)-3-(3-chlorophenyl)-propiolamide] to `Cc1csc(N(C)CCNC(=O)C#Cc2cccc(Cl)c2)n1` [Example 29, N-(2-(methyl-(4-methylthiazol-2-yl)amino)ethyl)-3-(3-chlorophenyl)-propiolamide], the pIC50 rises from 5.56 to 7.57 (2.01 log units).

First: CCOC(=O)c1cnc(N(C)CCNC(=O)C#Cc2cccc(Cl)c2)s1 [Example 25, N-(2-(methyl-(5-ethoxycarbonylthiazol-2-yl)amino)ethyl)-3-(3-chlorophenyl)-propiolamide]
Second: COC(=O)c1cnc(N(C)CCNC(=O)C#Cc2cccc(Cl)c2)s1 [Example 34, methyl 2-((2-(3-(3-chlorophenyl)-propiolamido)ethyl)(methyl)amino)thiazole-5-carboxylate]
The pIC50 of the first is 0.88 log units lower: 6.82 for the first, 7.70 for the second. The second is the more potent here.

Going from `Cc1cnc(N(C)CCNC(=O)C#Cc2cccc(Cl)c2)s1` [Example 30, 3-(3-Chlorophenyl)-N-(2-(methyl(5-methylthiazol-2-yl)amino)ethyl)propiolamide] to `CN(CCNC(=O)C#Cc1cccc(Cl)c1)c1ncc(Br)s1` [Example 31, N-(2-((5-Bromothiazol-2-yl)(methyl)amino)ethyl)-3-(3-chlorophenyl)propiolamide], the pIC50 rises from 7.11 to 7.89 (0.78 log units).

`CN(C(=O)C#Cc1cccc(Cl)c1)C1CCCN(c2nccs2)C1` (stereo not drawn) [Example 36, 3-(3-Chlorophenyl)-N-methyl-N-(1-(thiazol-2-yl)piperidin-3-yl)propiolamide] and `CN(C(=O)C#Cc1cccc(Cl)c1)C1CN(c2nccs2)C1` [Example 40, 3-(3-chlorophenyl)-N-methyl-N-(1-(thiazol-2-yl)azetidin-3-yl)-propiolamide] are within 0.2 log units of each other in pIC50: 7.66 for the first, 7.77 for the second.

First: CN(CCNC(=O)C#Cc1cccc(Cl)c1)c1nc(Cl)cs1 [Example 37, 3-(3-chlorophenyl)-N-(2-((4-chlorothiazol-2-yl)(methyl)amino)ethyl)propiolamide]
Second: CN(CCNC(=O)C#Cc1cccc(Cl)c1)c1ncc(Cl)s1 [Example 38, 3-(3-chlorophenyl)-N-(2-((5-chlorothiazol-2-yl)(methyl)amino)ethyl)-propiolamide]
The pIC50 of the first is 1.22 log units higher: 8.02 for the first, 6.80 for the second. The first is the more potent here.

First: CCN(CCNC(=O)C#Cc1cccc(Cl)c1)c1nccs1 [Example 41, 3-(3-Chlorophenyl)-N-(2-(ethyl(thiazol-2-yl)amino)ethyl)propiolamide]
Second: CN(CCNC(=O)C#Cc1cccc(Cl)c1)c1ncc(C#N)s1 [Example 42, 3-(3-chlorophenyl)-N-(2-((5-cyanothiazol-2-yl)(methyl)amino)ethyl)propiolamide]
The pIC50 of the first is 1.73 log units higher: 8.39 for the first, 6.66 for the second. The first is the more potent here.

`CN(c1ncc(F)s1)C1CN(C(=O)C#Cc2cccc(Cl)c2)C1` [Example 43, 1-(3-(3-Chlorophenyl)propioloyl)-3-(methyl(5-fluorothiazol-2-yl)amino)azetidine] and `CN(c1ncc(F)s1)C1CCN(C(=O)C#Cc2cccc(Cl)c2)C1` (stereo not drawn) [Example 44, 1-(3-(3-Chlorophenyl)propioloyl)-3-(methyl(5-fluorothiazol-2-yl)amino)pyrrolidine] are within 0.2 log units of each other in pIC50: 7.13 for the first, 7.15 for the second.

Same assay, conditions: 1 μM test compound, 5 nM [^3H]-MPEP

First: Cc1csc(N2CCC(NC(=O)C#Cc3ccccc3)C2)n1 (stereo not drawn) [Example 45, N-(1-(4-methylthiazol-2-yl)pyrrolidin-3-yl)-3-phenylpropiolamide]
Second: CC(C)(C)c1csc(N2CCC(NC(=O)C#Cc3ccccc3)C2)n1 (stereo not drawn) [Example 60, N-(1-(4-tert.-butylthiazol-2-yl)pyrrolidin-3-yl)-3-phenylpropiolamide]
The inhibition at 1 µM of the first is higher: 59% for the first, 30% for the second.

Going from `COc1cccc(C#CC(=O)NC2CCN(c3nc(C)cs3)C2)c1` (stereo not drawn) [Example 46, 3-(3-methoxyphenyl)-N-(1-(4-methylthiazol-2-yl)pyrrolidin-3-yl)propiolamide] to `Cc1cccc(C#CC(=O)NC2CCN(c3nc(C)cs3)C2)c1` (stereo not drawn) [Example 72, N-(1-(4-methylthiazol-2-yl)pyrrolidin-3-yl)-3-m-tolylpropiolamide], the inhibition at 1 µM rises from 48% to 87%.

First: Cc1nc(N2CCC(NC(=O)C#Cc3ccccc3)C2)sc1C (stereo not drawn) [Example 51, N-(1-(4,5-dimethylthiazol-2-yl)pyrrolidin-3-yl)-3-phenylpropiolamide]
Second: Cc1csc(N2CCC(NC(=O)C#Cc3cccc(F)c3)C2)n1 (stereo not drawn) [Example 67, 3-(3-fluorophenyl)-N-(1-(4-methylthiazol-2-yl)pyrrolidin-3-yl)propiolamide]
The inhibition at 1 µM of the first is lower: 48% for the first, 76% for the second.

First: COc1ccc(C#CC(=O)NC2CCN(c3nc(C(C)(C)C)cs3)C2)cc1 (stereo not drawn) [Example 55, N-(1-(4-tert.-butylthiazol-2-yl)pyrrolidin-3-yl)-3-(4-methoxyphenyl)propiolamide]
Second: Cc1ccc(C#CC(=O)NC2CCN(c3nc(C(C)(C)C)cs3)C2)cc1 (stereo not drawn) [Example 56, N-(1-(4-tert.-butylthiazol-2-yl)pyrrolidin-3-yl)-3-p-tolylpropiolamide]
The inhibition at 1 µM of the first is lower: 26% for the first, 37% for the second.

Going from `CC(C)(C)c1csc(N2CCC(NC(=O)C#Cc3ccc(F)cc3)C2)n1` (stereo not drawn) [Example 57, N-(1-(4-tert.-butylthiazol-2-yl)pyrrolidin-3-yl)-3-(4-fluorophenyl)propiolamide] to `CC(C)(C)c1csc(N2CCC(NC(=O)C#Cc3cccc(F)c3)C2)n1` (stereo not drawn) [Example 59, N-(1-(4-tert.-butylthiazol-2-yl)pyrrolidin-3-yl)-3-(3-fluorophenyl)propiolamide], the inhibition at 1 µM rises from 26% to 34%.

Going from `CC(C)(C)c1csc(N2CCC(NC(=O)C#Cc3ccccc3F)C2)n1` (stereo not drawn) [Example 61, N-(1-(4-tert.-butylthiazol-2-yl)pyrrolidin-3-yl)-3-(2-fluorophenyl)propiolamide] to `Cc1csc(N2CCC(NC(=O)C#Cc3ccccc3F)C2)n1` (stereo not drawn) [Example 70, 3-(2-fluorophenyl)-N-(1-(4-methylthiazol-2-yl)pyrrolidin-3-yl)propiolamide], the inhibition at 1 µM rises from 28% to 50%.

`Cc1csc(N2CCC(NC(=O)C#Cc3cccc(C(F)(F)F)c3)C2)n1` (stereo not drawn) [Example 71, N-(1-(4-methylthiazol-2-yl)pyrrolidin-3-yl)-3-(3-(trifluoromethyl)phenyl)-propiolamide] showed an inhibition at 1 µM of 59%.

Same assay, conditions: 10 μM test compound, 5 nM [^3H]-MPEP

First: O=C(C#Cc1ccccc1)NC1CCN(c2nccs2)C1 (stereo not drawn) [Example 1, 3-Phenyl-N-(1-(thiazol-2-yl)pyrrolidin-3-yl)propiolamide]
Second: O=C(C#Cc1ccccc1)N1CCCC(Nc2nccs2)C1 (stereo not drawn) [Example 27, 3-(thiazol-2-yl-amino)-1-(3-phenylpropioloyl)piperidine]
The inhibition at 10 µM of the first is higher: 66% for the first, 19% for the second.

First: O=C(C#Cc1ccccc1)NC1CCCCC1Nc1nccs1 (stereo not drawn) [Example 6, 3-phenyl-N-(2-(thiazol-2-ylamino)cyclohexyl)propiolamide]
Second: CN(C(=O)C#Cc1ccccc1)C1CCCCC1N(C)c1nccs1 (stereo not drawn) [Example 12, N-Methyl-N-(2-(methyl(thiazol-2-yl)amino)cyclohexyl)-3-phenylpropiolamide]
The inhibition at 10 µM of the first is higher: 57% for the first, 41% for the second.
